Test results taken from the supplement of paper PMC12494721.
Where a name gives a salt, the structure may show the parent alone.

How the values were obtained:
Conditions in all cases: incubation time: 27 h, anaerobic, 37 °C
[1] = tested on: Ruminococcus gnavus DSM 108212; assay: fold change of Tryptamine concentration vs plate DMSO controls (fold change (ratio)); higher = more amine produced
[2] = tested on: Klebsiella aerogenes DSM 30053; assay: fold change of Putrescine concentration vs plate DMSO controls (fold change (ratio)); higher = more amine produced
[3] = tested on: Ruminococcus gnavus DSM 108212; assay: fold change of 2-Phenylethylamine concentration vs plate DMSO controls (fold change (ratio)); higher = more amine produced
[4] = tested on: Klebsiella aerogenes DSM 30053; assay: growth (OD595) fold change vs plate DMSO controls (fold change (ratio)); higher = more growth
[5] = tested on: Ruminococcus gnavus DSM 108212; assay: as above
[6] = tested on: Klebsiella aerogenes DSM 30053; assay: fold change of Cadaverine concentration vs plate DMSO controls (fold change (ratio)); higher = more amine produced
[7] = tested on: Klebsiella aerogenes DSM 30053; assay: fold change of Histamine concentration vs plate DMSO controls (fold change (ratio)); higher = more amine produced
Protocol: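 Dose-response follow-up: bacteria (E. coli IAI1, K. aerogenes DSM 30053, C. sporogenes DSM 1664, R. gnavus DSM 108212) were grown anaerobically in mGAM at 37 °C for 27 h with compound at 0.6125-20 µM. Amines were measured in the whole culture by targeted LC-MS/MS. Metabolite fold change and OD595 fold change are relative to plate DMSO controls; n=2 biological replicates. OD fold changes are not clipped, so slightly negative values mean no growth.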

[8] = tested on: Clostridium sporogenes DSM 1664; assay: fold change of Tryptamine concentration vs plate DMSO controls (fold change (ratio)); higher = more amine produced
[9] = tested on: Clostridium sporogenes DSM 1664; assay: growth (OD595) fold change vs plate DMSO controls (fold change (ratio)); higher = more growth
[10] = tested on: Escherichia coli IAI1; assay: fold change of Putrescine concentration vs plate DMSO controls (fold change (ratio)); higher = more amine produced
[11] = tested on: Escherichia coli IAI1; assay: growth (OD595) fold change vs plate DMSO controls (fold change (ratio)); higher = more growth
[12] = tested on: Escherichia coli IAI1; assay: fold change of Cadaverine concentration vs plate DMSO controls (fold change (ratio)); higher = more amine produced

N[C@@H]1CCCCN(c2c(F)cc3c(=O)c(C(=O)O)cn(C4CC4)c3c2Cl)C1 [Besifloxacin hydrochloride]
Conditions | fold change of 2-Phenylethylamine concentration, [3] | fold change of Cadaverine concentration, [6] | fold change of Histamine concentration, [7] | fold change of Putrescine concentration, [2] | fold change of Tryptamine concentration, [1] | growth, [4] | growth, [5]
0.6125 µM | 1.11 | 0.955 | 1.18 | 1.02 | 1.36 | 1.32 | 1.01
1.25 µM | 0.219 | 1.03 | 0.938 | 1.22 | 0.415 | 0.476 | 0.127
2.5 µM | 0.487 | 1.02 | 0.188 | 1.26 | 0.746 | 0.277 | 0.193
5 µM | 0.44 | 1.02 | 0.166 | 1.36 | 0.657 | 0.336 | 0.207
10 µM | 0.321 | 1 | 0.185 | 1.43 | 0.451 | 0.358 | 0.22
20 µM | 0.296 | 0.981 | 0.241 | 1.4 | 0.385 | 0.302 | 0.182

Oc1c(Cl)cc(Cl)cc1Sc1cc(Cl)cc(Cl)c1O [Bithionol]
Conditions | fold change of Tryptamine concentration, [8] | growth, [9]
0.6125 µM | 1.09 | 1.23
1.25 µM | 1.06 | 1.2
2.5 µM | 1.07 | 0.906
5 µM | 0.891 | 0.716
10 µM | 0.0764 | 0.142
20 µM | 0.0165 | -0.0314

COC(=O)N/N=C/c1c[n+]([O-])c2ccccc2[n+]1[O-] [Carbadox]
Conditions | fold change of Tryptamine concentration, [8] | growth, [9]
0.6125 µM | 0.852 | 1.09
1.25 µM | 0.79 | 0.89
2.5 µM | 0.724 | 0.999
5 µM | 0.739 | 1.04
10 µM | 0.774 | 0.742
20 µM | 0.343 | 0.333

Cn1nnnc1SCC1=C(C(=O)O)N2C(=O)[C@@H](NC(=O)[C@H](O)c3ccccc3)[C@H]2SC1 [Cefamandole sodium salt]
Conditions | fold change of 2-Phenylethylamine concentration, [3] | fold change of Tryptamine concentration, [1] | growth, [5]
0.6125 µM | 0.85 | 0.992 | 1.26
1.25 µM | 0.767 | 0.847 | 1.29
2.5 µM | 0.996 | 1.2 | 1.53
5 µM | 0.492 | 0.675 | 0.889
10 µM | 0.244 | 0.357 | 0.479
20 µM | 0.178 | 0.263 | 0.481

CO[C@@]1(NC(=O)C2SC(=C(C(N)=O)C(=O)O)S2)C(=O)N2C(C(=O)O)=C(CSc3nnnn3C)CS[C@@H]21 (stereo not given in full) [Cefotetan]
Conditions | fold change of Cadaverine concentration, [12] | fold change of Putrescine concentration, [10] | growth, [11]
0.6125 µM | 1.08 | 0.781 | 0.849
1.25 µM | 1.22 | 1.01 | 0.812
2.5 µM | 1.18 | 0.823 | 0.978
5 µM | 2.07 | 2.04 | 0.728
10 µM | 2.24 | 2.6 | 0.123
20 µM | 2.29 | 1.48 | 0.0366

CN(C)CCn1nnnc1SCC1=C(C(=O)O)N2C(=O)[C@@H](NC(=O)Cc3csc(N)n3)[C@H]2SC1 [Cefotiam hydrochloride]
Conditions | fold change of Cadaverine concentration, [12] | fold change of Putrescine concentration, [10] | fold change of Tryptamine concentration, [8] | growth, [9] | growth, [11]
0.6125 µM | 1.29 | 0.767 | 1.02 | 0.8 | 0.969
1.25 µM | 1.27 | 0.89 | 0.833 | 0.293 | 1.03
2.5 µM | 1.71 | 2.91 | 0.0314 | 0.273 | 0.906
5 µM | 1.34 | 0.839 | 0.0234 | -0.0402 | -0.0152
10 µM | 0.568 | 0.15 | 0.025 | -0.0341 | -0.055
20 µM | 0.594 | 0.148 | 0.0225 | -0.0328 | -0.0576

Cc1cc(O)c(C(=O)N[C@@H](C(=O)N[C@@H]2C(=O)N3C(C(=O)O)=C(CSc4nnnn4C)CS[C@H]23)c2ccc(O)cc2)cn1 [Cefpiramide]
Conditions | fold change of 2-Phenylethylamine concentration, [3] | fold change of Cadaverine concentration, [12] | fold change of Putrescine concentration, [10] | fold change of Tryptamine concentration, [1] | growth, [5] | growth, [11]
0.6125 µM | 0.656 | 1.44 | 0.827 | 0.773 | 1.28 | 0.836
1.25 µM | 0.288 | 1.57 | 1.34 | 0.388 | 0.921 | 0.802
2.5 µM | 0.158 | 1.97 | 3.19 | 0.226 | 0.902 | 0.44
5 µM | 0.132 | 2.19 | 2.27 | 0.183 | 0.827 | 0.259
10 µM | 0.107 | 2.26 | 1.28 | 0.154 | 0.698 | 0.00195
20 µM | 0.131 | 2.23 | 0.966 | 0.147 | 0.575 | -0.0159

O=C(N[C@H](CO)[C@H](O)c1ccc([N+](=O)[O-])cc1)C(Cl)Cl [Chloramphenicol]
Conditions | fold change of 2-Phenylethylamine concentration, [3] | fold change of Tryptamine concentration, [1] | growth, [5]
0.6125 µM | 1 | 1.05 | 0.858
1.25 µM | 0.839 | 0.822 | 0.8
2.5 µM | 0.648 | 0.595 | 0.814
5 µM | 0.601 | 0.577 | 0.765
10 µM | 0.477 | 0.506 | 0.647
20 µM | 0.174 | 0.175 | 0.204

Cc1ncc([N+](=O)[O-])n1C [Dimetridazole]
Conditions | fold change of Tryptamine concentration, [8] | growth, [9]
0.6125 µM | 0.869 | 1.15
1.25 µM | 0.772 | 1.1
2.5 µM | 0.685 | 0.842
5 µM | 0.184 | 1.1
10 µM | 0.0282 | -0.0122
20 µM | 0.0226 | -0.0151

C[C@@H](O)[C@H]1C(=O)N2C(C(=O)O)=C(S[C@@H]3CN[C@H](CNS(N)(=O)=O)C3)[C@H](C)[C@H]12 [Doripenem monohydrate]
Conditions | fold change of 2-Phenylethylamine concentration, [3] | fold change of Tryptamine concentration, [1] | growth, [5]
0.6125 µM | 0.242 | 0.35 | 1.74
1.25 µM | 0.158 | 0.206 | 0.893
2.5 µM | 0.118 | 0.16 | 2.1
5 µM | 0.119 | 0.15 | 0.381
10 µM | 0.0974 | 0.121 | 0.355
20 µM | 0.111 | 0.128 | 0.36

CS(=O)(=O)c1ccc([C@@H](O)[C@@H](CF)NC(=O)C(Cl)Cl)cc1 [Florfenicol]
Conditions | fold change of 2-Phenylethylamine concentration, [3] | fold change of Tryptamine concentration, [1] | fold change of Tryptamine concentration, [8] | growth, [5] | growth, [9]
0.6125 µM | 0.644 | 0.662 | 0.86 | 0.826 | 1.14
1.25 µM | 0.572 | 0.537 | 0.636 | 0.757 | 0.685
2.5 µM | 0.509 | 0.516 | 0.0416 | 0.681 | 0.0218
5 µM | 0.311 | 0.393 | 0.0331 | 0.386 | -0.0331
10 µM | 0.203 | 0.261 | 0.0302 | 0.252 | -0.0315
20 µM | 0.199 | 0.241 | 0.0273 | 0.0641 | -0.0323

CC1CCc2cc(F)cc3c(=O)c(C(=O)O)cn1c23 (stereo not given) [Flumequine]
Conditions | fold change of Tryptamine concentration, [8] | growth, [9]
0.6125 µM | 1.03 | 1.02
1.25 µM | 1.06 | 1.04
2.5 µM | 1.11 | 1
5 µM | 0.996 | 0.948
10 µM | 0.569 | 0.659
20 µM | 0.0662 | 0.202

COc1c(N2C[C@@H]3CCCN[C@@H]3C2)c(F)cc2c(=O)c(C(=O)O)cn(C3CC3)c12 [Moxifloxacin]
Conditions | fold change of 2-Phenylethylamine concentration, [3] | fold change of Tryptamine concentration, [1] | growth, [5]
0.6125 µM | 2.13 | 2.33 | 0.813
1.25 µM | 2.4 | 2.83 | 0.562
2.5 µM | 2.64 | 3.17 | 0.528
5 µM | 2.66 | 3.27 | 0.491
10 µM | 1.29 | 2 | 0.279
20 µM | 0.274 | 0.511 | 0.119

OC[C@H]1O[C@@H](n2cnc3cncnc32)[C@H](O)[C@@H]1O [Nebularine]
Conditions | fold change of 2-Phenylethylamine concentration, [3] | fold change of Tryptamine concentration, [1] | growth, [5]
0.6125 µM | 0.725 | 0.84 | 0.842
1.25 µM | 0.65 | 0.755 | 0.629
2.5 µM | 0.367 | 0.503 | 0.339
5 µM | 0.321 | 0.464 | 0.336
10 µM | 0.413 | 0.552 | 0.336
20 µM | 0.434 | 0.585 | 0.333

CCn1cc(C(=O)O)c(=O)c2cc(F)c(N3CCNCC3)cc21 [Norfloxacin]
Conditions | fold change of 2-Phenylethylamine concentration, [3] | fold change of Cadaverine concentration, [6] | fold change of Histamine concentration, [7] | fold change of Putrescine concentration, [2] | fold change of Tryptamine concentration, [1] | fold change of Tryptamine concentration, [8] | growth, [4] | growth, [5] | growth, [9]
0.6125 µM | 1.3 | 0.969 | 1.18 | 1.02 | 1.44 | 0.911 | 1.14 | 1.36 | 1.02
1.25 µM | 1.98 | 1.02 | 0.775 | 1.21 | 2.07 | 0.589 | 0.479 | 0.823 | 0.736
2.5 µM | 1.23 | 1 | 0.571 | 1.29 | 1.45 | 0.0459 | 0.363 | 0.713 | 0.00966
5 µM | 1.2 | 1 | 0.19 | 1.31 | 1.32 | 0.035 | 0.384 | 0.628 | 0.0175
10 µM | 1.25 | 1.01 | 0.262 | 1.37 | 1.41 | 0.0429 | 0.385 | 0.607 | 0.0423
20 µM | 1.38 | 1 | 0.237 | 1.37 | 1.51 | 0.0345 | 0.256 | 0.425 | 0.00666

CO[C@H]1/C=C/O[C@@]2(C)Oc3c(C)c(O)c4c(O)c(c5c(nc6cc(C)ccn65)c4c3C2=O)NC(=O)/C(C)=C\C=C\[C@H](C)[C@H](O)[C@@H](C)[C@@H](O)[C@@H](C)[C@H](OC(C)=O)[C@@H]1C [Rifaximin]
Conditions | fold change of Tryptamine concentration, [8] | growth, [9]
0.6125 µM | 0.601 | 1.05
1.25 µM | 0.0574 | 0.257
2.5 µM | 0.03 | -0.0262
5 µM | 0.0292 | -0.0255
10 µM | 0.0294 | -0.0254
20 µM | 0.0294 | -0.0277
